Data set [1] deals with T1, sigma-1 receptor (Homo sapiens, UniProt Q99720).
T1 construct: incubing Jurkat cell membranes ([…] protein per tube) with [^3H](+)-pentazocine; endogenous in cells; host or cells: Jurkat cell membranes
Put plainly: sigma-1 receptor binding assay ([3H](+)-pentazocine displacement, Jurkat cell membranes). Conditions: [3H](+)-pentazocine 15 nM, 37° C., 2 hours; for inhibition at 0.01 µM: tested compound 10 nM. How it is done:
The sigma-1 receptor binding assays were performed according to Ganapathy et al. (J Pharmacol Exp Ther 28:251-60, 1999). The sigma-1 receptor binding assay was carried out by incubing Jurkat cell membranes ([…] protein per tube) with [^3H](+)-pentazocine a selective sigma-1 radiotracer (15 nM) and a range of concentration of tested compounds, at 37° C. for 2 hours in 5 mM tris/HCl buffer (pH=7.4). The inhibition of [^3H](+)-pentazocine binding assay is mainly used to determine the inhibition constant (Ki) of potential sigma-1 receptor ligands. These assays are performed with a single concentration of [^3H](+)-pentazocine at a concentration near its KD and increasing concentrations of non-radioactive ligands.

Molecules are shown by their SMILES. Structures can show the parent of a compound that is named as a salt.

T1 sequence (Q99720 whole entry): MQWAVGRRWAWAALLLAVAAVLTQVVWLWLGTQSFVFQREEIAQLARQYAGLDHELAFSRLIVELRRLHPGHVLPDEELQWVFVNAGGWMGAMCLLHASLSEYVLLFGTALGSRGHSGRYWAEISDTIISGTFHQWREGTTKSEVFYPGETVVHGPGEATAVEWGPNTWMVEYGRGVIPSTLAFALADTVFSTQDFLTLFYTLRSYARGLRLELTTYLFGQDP

Compound `Cl.O=c1c(-c2ccccc2)cncn1C1CCN(Cc2ccccc2)CC1` [cpd 43, 3-(1-benzylpiperidin-4-yl)-5-phenylpyrimidin-4(3H)-one hydrochloride] displayed a melting point of 144 °C. The compound also returned an inhibition at 0.01 µM in data set [1] of 86%. The same compound had an inhibition at 0.1 µM in data set [1] (tested compound 100 nM) of 90%. `O=c1c(-c2ccc(F)cc2)ccnn1CC1CCN(Cc2ccccc2)CC1` [cpd 35, 2-((1-benzylpiperidin-4-yl)methyl)-4-(4-fluorophenyl)pyridazin-3(2H)-one hydrochloride] showed an inhibition at 0.01 µM in data set [1] of 44.6%. Same read-out and setting: under `O=c1c(-c2ccccc2)ccnn1CC1CCCN(Cc2ccccc2)C1` (centres unmarked) [cpd 9, 2-[(1-benzylpiperidin-3-yl)methyl]-4-phenyl-2,3-dihydropyridazin-3-one hydrochloride] stands 38.8%.

What is called inhibition is the change of the read-out against control, counted positive when it falls. Low readings indicate little suppression, high ones strong suppression. In general, melting point refers to the temperature, or range, at which the solid turns liquid.

(Values after patent publication US20230049619A1, “SIGMA-1 RECEPTOR LIGANDS AND USES THEREOF” (UNIVERSITE DE STRASBOURG, priority 2019, published 2023).)
